In patent EP4640674A1, “CRYSTAL FORMS OF ETHOXIMOD, PREPARATION METHOD THEREFOR AND USE THEREOF” (Jiankuan (Suzhou) Biotechnology Co., Ltd, priority 2022, dated 2024):
“Also recorded” adds a separate entry of the source.

Experiments:
Assay type in all cases: physicochemical
[1] = Solid-state stability on storage (crystal form by XRPD, purity); conditions: for Crystal Form after storage / main purity after storage / maximum single impurity after storage: 30 days exposed
Method: Samples were taken before and after storage, and crystal forms were measured through XRPD. […] Table 3 Comparison of solid-state stability of crystal form A and crystal form B

[2] = Dynamic solubility at 37 °C (HPLC; residual solid by XRPD)
Method: Samples of the crystal form A and the crystal form B of ethoximod were taken and prepared into saturated solutions at 37 °C in Fasted State Simulated Intestinal Fluid (FaSSIF, pH = 8.0), Fed State Simulated Intestinal Fluid (FeSSIF, pH = 5.0), Simulated Gastric Fluid (SGF, pH = 1.0), a hydrochloric acid aqueous solution (pH = 1.0), an acetic acid-sodium acetate buffer system (pH = 4.0), a phosphate buffer system (pH = 6.8) and water. After 1 h/2 h/4 h/24 h, filtration was performed to obtain solutions, and actual concentrations of the samples in the solutions were measured through high-performance liquid chromatography (HPLC) (diluting the filtrates as needed). Crystal forms of the solids before and after the experiment were characterized through XRPD to check whether phase transition had occurred. Table 4 Comparison of solubility of crystal form A and crystal form B

[3] = Equilibrium solubility in organic solvents at room temperature (HPLC; solid by XRPD); conditions: equilibrium for 24 h; for solubility: hydrochloride
Method: The crystal form A and the crystal form B of ethoximod were prepared into solutions at room temperature with ethanol, acetone and ethyl acetate. After equilibrium for 24 h, filtration was performed to obtain saturated solutions, and contents of the samples in the saturated solutions were measured through high-performance liquid chromatography (HPLC) (diluting the filtrates as needed). Crystal forms of the solids before and after the experiment were characterized through XRPD to check whether phase transition had occurred.

[4] = Dynamic vapor sorption (hygroscopicity); conditions: hydrochloride
Text: In the examples of the present application, the instrument used for the X-ray powder diffraction test is the D2 Phaser produced by Bruker. The instrument used for the differential scanning calorimetry test is the differential scanning calorimeter DSC 250 produced by TA Instruments. The instrument used for the thermogravimetric analysis is the thermogravimetric analyzer TGA 55 produced by TA Instruments. The instrument used for the FT-IR test is the Fourier infrared spectrometer ID1-summit produced by Thermo. The instrument used for the dynamic vapor sorption test is the DVS Intrinsic produced by Surface Measurement Systems (SMS). The instrument used for the microscopy is the microscope NJF-120A produced by Suzhou Nanguang Electronic Technology Co., Ltd.
Samples of the crystal form A and the crystal form B of ethoximod were taken for a dynamic vapor sorption test.

[5] = Mechanical stability: grinding, XRPD before and after; conditions: ground with an agate mortar for 5 min; hydrochloride
Method: 50 mg crystal form A of ethoximod and 50 mg crystal form B of ethoximod were weighed and ground clockwise with an agate mortar for 5 min, and the samples before and after the grinding were subjected to an XRPD test.

[6] = Bulk density and tap density test, Hausner ratio and compressibility; conditions: hydrochloride
Method: In this experiment, the measurement was performed by using a tap instrument according to a fixed volume method. Specific operations are as follows: the weighed powders were loaded into a 50 mL graduated cylinder, and the graduated cylinder was fixed on a support; the tap instrument was set to vibrate 55±5 times per minute for 6-8 min; a change in a volume of the powders in the measuring cup was measured. A ratio of a mass of the powders to a volume (50 mL) of the materials before the tap is the bulk density of the powders, and a ratio of the mass of the powders to a volume of the materials after the tap is the tap density of the powders. Methods for converting Hausner ratio and compressibility are as follows, and the description of Hausner ratio and flowability is shown in Table 8: Table 6 Physical properties of crystal form A and crystal form B

[7] = Compressibility: tableting evaluation; conditions: tableting, punch die with a diameter of 6 mm; hydrochloride
Method: The crystal form A and the crystal form B of ethoximod were taken for preparation tableting evaluation. In this experiment, samples were subjected to tableting under the same pressure by using a punch die with a diameter of 6 mm, radial crushing forces F, diameters D and thicknesses L of the tablets were measured after the elastic recovery of the tablets, and the tensile strength of the tablets was calculated according to the following formula: tensile strength Ts = 2F/ΠDL.

[8] = Microscopic morphology and particle size; conditions: optical microscope, 40× objective lens; hydrochloride
Text: Samples of the crystal form A and the crystal form B of ethoximod were subjected to microscopic morphological researches. The morphology and particle sizes of the crystal form A and the crystal form B were observed under a 40× objective lens of an optical microscope. The crystal form A is irregular and plate-shaped with a raw material particle size of below 35 µm and a long/short diameter ratio of 1 to 2. The crystal form B aggregates and becomes spherical with a raw material particle size of below 20 µm.

[9] = FaSSIF (pH = 8.0), 37 °C, 1 h, hydrochloride
[10] = FaSSIF (pH = 8.0), 37 °C, 2 h, hydrochloride
[11] = FaSSIF (pH = 8.0), 37 °C, 4 h, hydrochloride
[12] = FaSSIF (pH = 8.0), 37 °C, 24 h, hydrochloride

Structure (SMILES): CCc1nc(-c2ccc(-c3ccc(CCC(N)(CO)CO)cc3)cc2)co1.Cl [crystal form B, 2-amino-2-{2-(4'-(2-ethyloxazol-4-yl)-[1,1'-biphenyl]-4-yl)ethyl}-1,3-propylene glycol hydrochloride]
- change in main purity ([1]; 40 °C/75% RH, 60 °C and 92.5% RH for 30 days): no significant change
- time the crystal form is stable (XRPD) ([1]; 60 °C and light): at least 30 days
- Crystal Form after storage ([1]; At 40 °C/75% RH, hydrochloride): crystal form C
- main purity after storage ([1]; At 40 °C/75% RH, hydrochloride): 98.82 A%
- maximum single impurity after storage ([1]; At 40 °C/75% RH, hydrochloride): maximum single impurity: 0.34 A%
- Crystal Form after storage ([1]; At 60 °C, hydrochloride): crystal form B
- main purity after storage ([1]; At 60 °C, hydrochloride): 98.61 A%
- maximum single impurity after storage ([1]; At 60 °C, hydrochloride): maximum single impurity: 0.36 A%
- Crystal Form after storage ([1]; At 92.5% RH, hydrochloride): crystal transformed into the crystal form C
- main purity after storage ([1]; At 92.5% RH, hydrochloride): 98.83 A%
- maximum single impurity after storage ([1]; At 92.5% RH, hydrochloride): maximum single impurity: 0.36 A%
- Crystal Form after storage ([1]; In light, hydrochloride): crystal form B
- main purity after storage ([1]; In light, hydrochloride): 91.81 A%
- maximum single impurity after storage ([1]; In light, hydrochloride): maximum single impurity: 1.57 A%
- main purity ([1]; before storage, hydrochloride): crystal form B main purity: 98.85 A%
- maximum single impurity ([1]; before storage, hydrochloride): maximum single impurity: 0.33 A%
- change in main purity ([1]; light for 30 days, hydrochloride): decreased to a certain extent
- crystal form after storage (XRPD) ([1]; placed for 5 days under 92.5% RH and 45 °C/75% RH): crystal transformed into the crystal form C
- crystal form of the solid [2, 9]: free alkali
- solubility [2, 9]: 15 µg/mL
- crystal form of the solid [2, 10]: free alkali
- solubility [2, 10]: 10 µg/mL
- crystal form of the solid [2, 11]: free alkali
- solubility [2, 11]: 8 µg/mL
- crystal form of the solid [2, 12]: free alkali
- solubility [2, 12]: 21 µg/mL
- solubility ([2]; FeSSIF (pH = 5.0), 37 °C, 1 h, hydrochloride): 1480 µg/mL
- solubility ([2]; FeSSIF (pH = 5.0), 37 °C, 2 h, hydrochloride): 1630 µg/mL
- solubility ([2]; FeSSIF (pH = 5.0), 37 °C, 4 h, hydrochloride): 1210 µg/mL
- solubility ([2]; FeSSIF (pH = 5.0), 37 °C, 24 h, hydrochloride): 1670 µg/mL
- solubility ([2]; SGF (pH = 1.0), 37 °C, 1 h, hydrochloride): 290 µg/mL
- solubility ([2]; SGF (pH = 1.0), 37 °C, 2 h, hydrochloride): 280 µg/mL
- solubility ([2]; SGF (pH = 1.0), 37 °C, 4 h, hydrochloride): 320 µg/mL
- solubility ([2]; SGF (pH = 1.0), 37 °C, 24 h, hydrochloride): 360 µg/mL
- solubility ([2]; acetic acid-sodium acetate buffer pH = 4.0, 37 °C, 1 h, hydrochloride): 1450 µg/mL
- solubility ([2]; acetic acid-sodium acetate buffer pH = 4.0, 37 °C, 2 h, hydrochloride): 1780 µg/mL
- solubility ([2]; acetic acid-sodium acetate buffer pH = 4.0, 37 °C, 4 h, hydrochloride): 1930 µg/mL
- solubility ([2]; acetic acid-sodium acetate buffer pH = 4.0, 37 °C, 24 h, hydrochloride): 2610 µg/mL
- solubility ([2]; hydrochloric acid aqueous solution pH = 1.0, 37 °C, 1 h, hydrochloride): 300 µg/mL
- solubility ([2]; hydrochloric acid aqueous solution pH = 1.0, 37 °C, 2 h, hydrochloride): 410 µg/mL
- solubility ([2]; hydrochloric acid aqueous solution pH = 1.0, 37 °C, 4 h, hydrochloride): 320 µg/mL
- solubility ([2]; hydrochloric acid aqueous solution pH = 1.0, 37 °C, 24 h, hydrochloride): 360 µg/mL
- crystal form of the solid ([2]; phosphate buffer pH = 6.8, 37 °C, 1 h): free alkali
- crystal form of the solid ([2]; phosphate buffer pH = 6.8, 37 °C, 2 h): free alkali
- solubility ([2]; phosphate buffer pH = 6.8, 37 °C, 2 h, hydrochloride): lower than limit of detection
- crystal form of the solid ([2]; phosphate buffer pH = 6.8, 37 °C, 4 h): free alkali
- solubility ([2]; phosphate buffer pH = 6.8, 37 °C, 4 h, hydrochloride): lower than limit of detection
- crystal form of the solid ([2]; phosphate buffer pH = 6.8, 37 °C, 24 h): free alkali
- solubility ([2]; phosphate buffer pH = 6.8, 37 °C, 24 h, hydrochloride): 1.9 µg/mL
- solubility at 1 h ([2]; phosphate buffer, 37 °C, pH 6.8, aqueous buffer, thermodynamic from solid, phosphate buffer pH = 6.8, 37 °C, 1 h): 0.1 µg/mL
- solubility ([2]; water, 37 °C, 1 h, hydrochloride): 1690 µg/mL
- solubility ([2]; water, 37 °C, 2 h, hydrochloride): 1650 µg/mL
- solubility ([2]; water, 37 °C, 4 h, hydrochloride): 2500 µg/mL
- solubility ([2]; water, 37 °C, 24 h, hydrochloride): 2160 µg/mL
- solubility ([3]; acetone): 20 µg/mL
- solid-state crystal form ([3]; ethanol): C, with relatively poor crystallinity
- solubility ([3]; ethanol): 5050 µg/mL
- solubility ([3]; ethyl acetate): 10 µg/mL
- hygroscopic weight gain (vapor sorption) ([4]; 25 °C/90% RH): 4.6%
- hygroscopicity ([4]; DVS, 90% RH): with hygroscopicity; also recorded: has hygroscopicity
- crystal form after the dynamic vapor sorption test (XRPD) ([4]; after DVS test): crystal transformed into the crystal form C; also recorded: crystal transformed into a crystal form C
- crystal form after grinding (XRPD) [5]: partially crystal transformed into a crystal form C
- Compressibility ([6]; (tap density - bulk density)/tap density): 62.0
- Bulk Density [6]: 0.0742 g/mL
- Tap Density [6]: 0.1953 g/mL
- Hausner Ratio ([6]; tap density/bulk density): 2.6
- Experimental Phenomenon [7]: relatively severe sticking
- raw material particle size [8]: below 20 µm
